Results as given in the supplement of paper PMC10949913.

What was measured:
Settings in all cases: 48 h
CU-ACC1 [1] = assay: AC50 viability; higher = less potent
Outline: (§1)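 Library compounds were dispensed at 11 concentrations (23 nL each) onto three adrenocortical carcinoma cell lines in 1,536-well plates. Luminescence was recorded after 48 h using CellTiter-Glo, and signals were normalised per plate to vehicle and empty-well controls. Fitted concentration-response curves of inhibitory or non-responding classes only supplied the AC50 and area under the curve.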

CU-ACC2 [2] = assay: AC50 viability; higher = less potent
Outline: as §1

NCI-H295R [3] = assay: AC50 viability; higher = less potent
Outline: as §1

CU-ACC1 [4] = assay: area under concentration-response curve (viability) (AUC (a.u.)); higher = less active
Outline: as §1

CU-ACC2 [5] = assay: as above
Outline: as §1

NCI-H295R [6] = assay: as above
Outline: as §1

| SMILES | AC50 viability (CU-ACC1 [1]) | AC50 viability (CU-ACC2 [2]) | AC50 viability (NCI-H295R [3]) | area under concentration-response curve (CU-ACC1 [4]) | area under concentration-response curve (CU-ACC2 [5]) | area under concentration-response curve (NCI-H295R [6]) |
| --- | --- | --- | --- | --- | --- | --- |
| Cc1cccc(Nc2nc(N[C@@H]3CCCC[C@@H]3N)ncc2C(N)=O)c1 | 26.3 µM | 26.3 µM | 18.6 µM | 476 | 546 | 496 |
| CN(C)C/C=C/C(=O)Nc1ccc(C(=O)N2CCC[C@@H](Nc3ncc(Cl)c(-c4c[nH]c5ccccc45)n3)C2)cc1 | 5.25 µM | 2.63 µM | 14.8 µM | 399 | 358 | 489 |
| CC[C@@]1(O)C[C@H](O[C@H]2C[C@H](N(C)C)[C@H](O[C@H]3C[C@H](O)[C@H](O[C@H]4CCC(=O)[C@H](C)O4)[C@H](C)O3)[C@H](C)O2)c2c(cc3c(c2O)C(=O)c2c(O)cccc2C3=O)[C@H]1C(=O)OC | 23.5 µM | 16.6 µM | 16.6 µM | 453 | 533 | 523 |
| CNCCCC12CCC(c3ccccc31)c1ccccc12 | 23.5 µM | 23.5 µM | 16.6 µM | 488 | 564 | 464 |
| CC(C)(O)CC(=O)NCCn1ccc2ncnc(Nc3ccc(Oc4cccc(C(F)(F)F)c4)c(Cl)c3)c21 | 20.9 µM | 23.5 µM | 20.9 µM | 465 | 472 | 443 |
| Cc1ccc(NC(=O)Nc2cc(C(F)(F)F)ccc2F)cc1Nc1ccc2c(c1)NC(=O)/C2=C\c1ccc[nH]1 | 14.8 µM | 23.5 µM | 13.2 µM | 441 | 506 | 476 |
| Cn1cc(-c2ccc([S+](=O)([O-])n3ccc(/C=C/C(=O)Nc4ccccc4N)c3)cc2)cn1 | 13.2 µM | 9.34 µM | 5.25 µM | 377 | 464 | 352 |
| CC(C)C[C@H](NC(=O)[C@@H](NC(=O)c1cccc(-c2ccccc2)n1)[C@@H](C)O)B(O)O | 0.0723 µM | 0.0723 µM | 0.144 µM | 300 | 297 | 337 |
| C=CC(=O)Nc1ccc2ncnc(Nc3ccc(OCc4cccc(F)c4)c(Cl)c3)c2c1 | 20.9 µM | 10.5 µM | 10.5 µM | 334 | 534 | 510 |
| O=[N+]([O-])c1ccc(Nc2ccccc2-c2ccccc2)c2nonc12 | 9.34 µM | 8.33 µM | 8.33 µM | 426 | 467 | 434 |
| C[C@H](NC(=O)/C(C#N)=C/c1cccc(Br)n1)c1ccccc1 | 20.9 µM | 23.5 µM | 23.5 µM | 444 | 526 | 442 |
| Nc1cc(C(F)(F)F)c(-c2nc(N3CCOCC3)nc(N3CCOCC3)n2)cn1 | 5.25 µM | 16.6 µM | 3.72 µM | 381 | 413 | 441 |
| N=c1c2c(-c3ccccc3)c(-c3ccccc3)n(Cc3ccccc3)c2ncn1[C@H]1CC[C@H](O)CC1 | 18.6 µM | 18.6 µM | 18.6 µM | 341 | 531 | 491 |
| C=CC(=O)Nc1cccc(Oc2nc(Nc3ccc(N4CCN(C)CC4)cc3)ncc2Cl)c1 | 8.33 µM | 9.34 µM | 5.9 µM | 428 | 402 | 431 |
| CC(=O)c1cc2c(o1)C(=O)c1ccccc1C2=O | 0.263 µM | 1.66 µM | 0.934 µM | 270 | 377 | 351 |
| CC[C@@H](C)Nc1cc(C(=O)NC2CC3CC[C@@H](C2)N3c2ccc(C(=O)C3CC3)cn2)c(C)cc1C(N)=O (some centres not stated) | 0.59 µM | 0.118 µM | 0.59 µM | 330 | 405 | 408 |
| CC(=O)[C@]1(O)Cc2c(O)c3c(c(O)c2[C@@H](O[C@H]2C[C@H](N)[C@H](O)[C@H](C)O2)C1)C(=O)c1ccccc1C3=O | 20.9 µM | 20.9 µM | 14.8 µM | 428 | 485 | 377 |
| COC(=O)C/1=C(C)/N/C(=C(\C1C2=CC(=CC=C2)[N+]([O-])=O)C(=O)OCCCN3CCC(CC3)(C4=CC=CC=C4)C5=CC=CC=C5)C (configuration not stated) | 13.2 µM | 16.6 µM | 7.42 µM | 426 | 374 | 465 |
| CC(=O)Nc1ccc([C@H](C)C(=O)Nc2ncc(C(C)C)s2)cc1 | 9.34 µM | 5.25 µM | 18.6 µM | 448 | 376 | 485 |
| C=C1/C(=C\C=C2/CCC[C@]3(C)[C@@H]([C@H](C)/C=C/[C@H](C)C(C)C)CC[C@@H]23)C[C@@H](O)C[C@@H]1O | 6.61 µM | 7.42 µM | 7.42 µM | 381 | 400 | 372 |
| O=C(Nc1ccnc(NC(=O)C2CC2)c1)c1c(Cl)cccc1Cl | 9.34 µM | 4.17 µM | 18.6 µM | 390 | 463 | 479 |
| O=C(c1ccc(F)c(F)c1Nc1ccc(I)cc1F)N1CC(O)([C@@H]2CCCCN2)C1 | 6.61 µM | 3.32 µM | 10.5 µM | 308 | 299 | 371 |
| Cn1ncc(Cl)c1-c1cc(C(=O)NC(CN)Cc2ccc(F)c(F)c2)oc1Cl (configuration not stated) | 6.61 µM | 16.6 µM | 5.9 µM | 393 | 422 | 403 |
| CCN1CCN(Cc2ccc(NC(=O)Nc3ccc(Oc4cc(NC)ncn4)cc3)cc2C(F)(F)F)CC1 | 9.34 µM | 10.5 µM | 11.8 µM | 436 | 526 | 494 |
| C=CC(=O)N1CC/C(=C\c2ccc(F)c([N+](=O)[O-])c2)C(=O)/C(=C/c2ccc(F)c([N+](=O)[O-])c2)C1 | 0.263 µM | 0.148 µM | 0.209 µM | 318 | 342 | 333 |
| CCNC(=O)C#Cc1ccc2c(c1)NC(=O)/C2=C(\Nc1ccc(CN(C)C)cc1)c1ccccc1 | 0.91 µM | 2.88 µM | 2.57 µM | 443 | 536 | 524 |

| SMILES | AC50 viability (CU-ACC1 [1]) | AC50 viability (CU-ACC2 [2]) | AC50 viability (NCI-H295R [3]) | area under concentration-response curve (CU-ACC1 [4]) | area under concentration-response curve (CU-ACC2 [5]) | area under concentration-response curve (NCI-H295R [6]) |
| --- | --- | --- | --- | --- | --- | --- |
| CC(C)(C)c1cnc(CSc2cnc(NC(=O)C3CCNCC3)s2)o1 | 2.63 µM | 1.48 µM | 7.42 µM | 386 | 352 | 387 |
| c1ccc(Cn2c(-c3ccc(OCC(C4CCNCC4)n4c(-c5ccccc5)nc5ccccc54)cc3)nc3ccccc32)cc1 (configuration not stated) | 11.8 µM | 11.8 µM | 9.34 µM | 387 | 391 | 363 |
| Cc1nc(NC(=O)N2CCC[C@H]2C(N)=O)sc1-c1ccnc(C(C)(C)C(F)(F)F)c1 | 8.33 µM | 9.34 µM | 18.6 µM | 439 | 457 | 421 |
| NC(=O)c1cnc(N[C@@H]2CCCC[C@@H]2N)nc1Nc1cccc(-n2nccn2)c1 | 23.5 µM | 20.9 µM | 20.9 µM | 492 | 572 | 519 |
| COc1cc(F)ccc1-c1ncnc(Nc2cccc(C[S+](C)(=N)[O-])c2)n1 (configuration not stated) | 1.86 µM | 0.934 µM | 4.17 µM | 388 | 380 | 428 |
| COc1cccc2c1C(=O)c1c(O)c3c(c(O)c1C2=O)C[C@@](O)(C(=O)CO)CC3OC1CC(N2CCOC(OC)C2)C(O)C(C)O1 (some centres not stated) | 0.0833 µM | 0.059 µM | 0.0833 µM | 284 | 302 | 282 |
| CCCC1(CCC)CCC2(CCN(CCCN(CC)CC)C2)CC1 | 4.68 µM | 6.61 µM | 4.17 µM | 309 | 516 | 448 |
| COc1cc(O)c2c(c1)C1OC1C[C@H](O)[C@H](O)C(=O)/C=C\C[C@H](C)OC2=O (some centres not stated) | 6.61 µM | 16.6 µM | 14.8 µM | 429 | 492 | 435 |
| Cc1cc(F)c(C(=O)Nc2cccc(-c3nncn3C(C)C)n2)cc1-n1cnc(C2CC2)c1 | 18.6 µM | 11.8 µM | 18.6 µM | 427 | 360 | 419 |
| CNC1CCC(N(Cc2cccc(-c3ccncc3)c2)C(=O)c2sc3c(F)ccc(F)c3c2Cl)CC1 (configuration not stated) | 8.33 µM | 9.34 µM | 9.34 µM | 443 | 499 | 448 |
| NC[C@@](O)(c1ccc(Cl)cc1)c1ccc(-c2cn[nH]c2)cc1 | 7.42 µM | 14.8 µM | 8.33 µM | 463 | 529 | 485 |
| Nc1ccc(C(=O)c2cc3c(ccc4ccccc43)[nH]2)cc1 | 6.05 µM | 38.2 µM | 12.1 µM | 466 | 471 | 419 |
| CC[S+]([O-])(=O)NC1=CC(=C(OC2=C(F)C=C(F)C=C2)C=C1)\C3=C\N(C)C(=O)C4=C3C=C[NH]4 | 10.5 µM | 13.2 µM | 5.9 µM | 416 | 493 | 463 |
| CNC(=O)c1ccccc1Sc1ccc2c(/C=C/c3ccccn3)n[nH]c2c1 | 37.2 µM | 16.6 µM | 3.72 µM | 368 | 493 | 461 |
| CC(C)[C@@H](N(CCCN)C(=O)C1=CC=C(C)C=C1)C/2=C(\CC3=CC=CC=C3)C(=O)C4=C(O2)C=C(Cl)C=C4 | 13.2 µM | 26.3 µM | 2.35 µM | 448 | 565 | 359 |
| C=CC(=O)N1CCC(Oc2cc3c(Nc4ccc(Cl)c(Cl)c4F)ncnc3cc2OC)CC1 | 4.68 µM | 20.9 µM | 20.9 µM | 400 | 532 | 440 |
| NC1(CCC1)C2=CC=C(C=C2)C3=C(C=C/4C(=N3)\C=C/N5C(=O)N\N=C45)C6=CC=CC=C6 | 9.34 µM | 18.6 µM | 16.6 µM | 442 | 523 | 404 |
| COc1cc(C)c(Sc2cnc(NC(=O)c3ccc(CNC(C)C(C)(C)C)cc3)s2)cc1C(=O)N1CCN(C(C)=O)CC1 (configuration not stated) | 18.6 µM | 16.6 µM | 9.34 µM | 440 | 443 | 354 |
| CN(C)CCN(C)C(=O)c1ccc(NC(=O)Nc2ccc(-c3nc(N4CCOCC4)c4ccn(CC(F)(F)F)c4n3)cc2)cc1 | 4.68 µM | 3.72 µM | 5.9 µM | 307 | 307 | 354 |
| CCc1cc(C(N)=O)ccc1-n1nc(C(C)C)c2c(-n3cnc(-c4cnn(C)c4)c3)ccnc21 | 13.2 µM | 6.61 µM | 9.34 µM | 350 | 543 | 528 |
| C=CC(=O)Nc1ccc2ncnc(Nc3cccc(Br)c3)c2c1 | 13.2 µM | 14.8 µM | 0.372 µM | 360 | 375 | 409 |
| CC[C@H]1/C=C\C=C/C[C@@H](C)[C@H](O)[C@@](C)(O)C(=O)[C@@H](C)[C@H](O)[C@@H](C)C(=O)[C@@H](C)[C@H](O)[C@@H](C)/C=C/C(=O)O[C@@H]2[C@H](C)[C@H](CC1)O[C@]1(CC[C@H](C)[C@H](C[C@@H](C)O)O1)[C@H]2C | 0.00186 µM | 7.42 µM | 1.32 µM | 193 | 402 | 326 |
| CC[C@@]1(O)C(=O)OC/C2=C1/C=C3\N(CC4=C5[C@@H](N)CCC6=C5C(=CC(=C6C)F)N=C34)C2=O | 2.09 µM | 2.35 µM | 3.72 µM | 388 | 486 | 437 |
| C=CC(=O)Nc1cccc(Oc2nc(Nc3ccc(N4CCN(C)CC4)cc3OC)ncc2Cl)c1 | 8.33 µM | 7.42 µM | 9.34 µM | 442 | 526 | 502 |
| CCNC(=O)c1cc2c(-c3cc(OCCN4CCCC4)c(Cl)cc3Cl)nc(N)nc2s1 | 5.12 µM | 5.74 µM | 2.57 µM | 431 | 445 | 433 |
| CN[C@H]1CC[C@@H](c2ccc(Cl)c(Cl)c2)c2ccccc21 | 10.5 µM | 16.6 µM | 11.8 µM | 386 | 438 | 394 |
